From ChEMBL document CHEMBL1201862, “PubChem BioAssay data set” (2004) come the findings set out here.

In one test the target is T1, Coagulation factor XII (Homo sapiens, UniProt P00748).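 Further: activated factor XIIa alpha cleaving a fluorogenic AMC peptide substrate; inhibitor potency from loss of enzyme activity.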
T1 sequence (P00748 whole entry): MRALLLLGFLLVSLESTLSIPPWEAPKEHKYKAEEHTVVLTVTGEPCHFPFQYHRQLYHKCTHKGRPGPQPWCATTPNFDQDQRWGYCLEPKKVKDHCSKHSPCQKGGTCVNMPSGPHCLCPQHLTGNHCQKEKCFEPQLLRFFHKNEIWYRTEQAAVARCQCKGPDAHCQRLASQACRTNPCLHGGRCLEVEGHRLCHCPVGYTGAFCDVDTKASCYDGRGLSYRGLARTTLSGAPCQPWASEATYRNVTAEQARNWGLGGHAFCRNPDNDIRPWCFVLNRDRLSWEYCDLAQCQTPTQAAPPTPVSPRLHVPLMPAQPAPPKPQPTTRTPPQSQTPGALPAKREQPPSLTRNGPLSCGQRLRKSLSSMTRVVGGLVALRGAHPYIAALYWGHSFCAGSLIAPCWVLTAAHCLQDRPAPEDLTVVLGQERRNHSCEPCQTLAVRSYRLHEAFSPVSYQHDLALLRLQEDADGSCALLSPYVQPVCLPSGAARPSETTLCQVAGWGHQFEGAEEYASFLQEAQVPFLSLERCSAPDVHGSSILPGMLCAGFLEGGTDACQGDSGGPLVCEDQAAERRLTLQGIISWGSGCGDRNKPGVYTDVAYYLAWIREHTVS
In kind it is functional.

Test [1] in a line: HRAS-V12 fibroblast viability reduction – cell-based, Alamar Blue, dry powder, Ras selective lethality project, primary screen (AID 493045). In kind it is functional. Conditions: BJeLR. On the technique in general: Resazurin is reduced to fluorescent resorufin, in cell work by metabolically active cells.
The nature of test [2]: BJeHLT cell viability loss – BJeHLT cells, dry powder, counter-screen for Ras selective lethality project, dose response (AID 493052). The format is functional, cell-based. The following applies: Homo sapiens.
A short description of test [3]: BJeH cell viability loss – BJeH cells, dry powder, counter-screen for Ras selective lethality project, dose response (AID 493054). In kind it is functional, cell-based.
A short description of test [4]: DRD BJ cell killing, Ras synthetic lethality – DRD BJ fibroblasts, HRASV12, dry powder, dose response (AID 493049). The format is functional, cell-based.
A further test deals with Troponin, cardiac muscle (Homo sapiens, UniProt P19429+P45379+P63316). The experiment in a line: Fluorescence-based biochemical high throughput dose response assay for activators of the calcium sensitivity of cardiac Regulated Thin Filaments (RTF). [Related pubchem assays (depositor defined):AID493008, AID493018, AID504382, AID504383]. In kind it is protein-complex assay.

The target of test [5] is G-protein coupled receptor 55 (Homo sapiens, UniProt Q9Y2T6). In words: inhibition of LPI-stimulated GPR55 beta-arrestin translocation – imaging, U2OS, beta-arrestin-GFP, LPI agonist, primary screen (AID 2013).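 Further: antagonist potency measured as reduced agonist-driven arrestin aggregation.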 In kind it is functional.
A short description of test [6]: viability loss in human Jurkat cells – cell-based, luminescence, cytotoxicity control for P. falciparum gametocyte viability project, dose response (AID 1117277).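 Further: potency reflects loss of cellular ATP meaning fewer viable cells.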 The format is functional.
Test [7] is described as follows: viability inhibitors of stage V gametocytes – luminescence, dose response (AID 1117278).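 Further: gametocytes exposed to compound for 24 hours.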 In kind it is functional, cell-based.
The target in test [8] is T2, Heat shock factor protein 1 (Mus musculus, UniProt P38532).
T2 sequence (P38532 whole entry): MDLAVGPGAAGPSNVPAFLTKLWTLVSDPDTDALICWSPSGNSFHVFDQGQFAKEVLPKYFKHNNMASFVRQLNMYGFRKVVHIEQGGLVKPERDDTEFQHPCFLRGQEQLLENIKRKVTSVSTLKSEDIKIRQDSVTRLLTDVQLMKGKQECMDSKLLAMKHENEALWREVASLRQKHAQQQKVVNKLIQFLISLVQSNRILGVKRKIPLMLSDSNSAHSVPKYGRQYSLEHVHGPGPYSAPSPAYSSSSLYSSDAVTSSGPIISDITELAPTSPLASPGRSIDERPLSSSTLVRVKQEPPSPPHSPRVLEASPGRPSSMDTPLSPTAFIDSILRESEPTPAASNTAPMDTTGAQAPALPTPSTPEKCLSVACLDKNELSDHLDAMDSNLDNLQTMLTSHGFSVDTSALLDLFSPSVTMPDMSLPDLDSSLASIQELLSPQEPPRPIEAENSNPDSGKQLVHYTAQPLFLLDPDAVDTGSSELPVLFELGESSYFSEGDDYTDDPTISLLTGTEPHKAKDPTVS
In words: enhancement of HSF1-driven luciferase signal – cell-based, NIH3T3, luminescence, dose retest, confirmation (AID 435004).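 Further: stress induced by proteasome inhibitor MG132 added 30 min after compound; luciferase reporter driven by HSF1 response element in NIH3T3 cells; actives raise luminescence as potentiators of the MG132 stress response.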 The format is functional.

Test [9] deals with 1-phosphatidylinositol 4,5-bisphosphate phosphodiesterase beta-3 (Homo sapiens, UniProt Q01970). In words: Fluorescence-based biochemical high throughput dose response assay to identify inhibitors of phospholipase C isozymes (PLC-B3).
In another test the target is Large T antigen (Simian virus 40, UniProt P03070). The format is functional, Betapolyomavirus macacae.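 Further: Confirmatory-stage PubChem screen for compounds that inhibit SV40 T antigen.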
Test [10] addresses Intestinal-type alkaline phosphatase (Homo sapiens, UniProt P09923). The experiment in a line: inhibition of human intestinal alkaline phosphatase – biochemical, dose response (AID 488876). In kind it is functional.
The target in test [11] is Intestinal-type alkaline phosphatase (Mus musculus, UniProt P24822). In words: PubChem AID 488785. In kind it is functional.
A further test has as its target Bcl-2-like protein 1 (Homo sapiens, UniProt Q07817). In words: blockers of BCLXL peptide binding – biochemical, fluorescence polarization, 1536-well, selectivity assay for MCL1 inhibitor project, dose response (AID 2218).
For test [12], the target named is Induced myeloid leukemia cell differentiation protein Mcl-1 (Homo sapiens, UniProt Q07820). In words: blockers of MCL1 binding to BIM peptide – biochemical, fluorescence polarization, BIM-BH3 peptide, 1536-well, dose response (AID 2217). A general note: Fluorescence polarisation rises when a labelled molecule tumbles more slowly, as on binding a larger partner.

Another test addresses ORF 73 (Human herpesvirus 8, UniProt O40947). The experiment in a line: KSHV LANA DNA-binding disruption – biochemical, fluorescence polarization, cherry-picked samples, dose response (AID 504725).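 Further: fluorescence polarization of a labeled DNA duplex reporting LANA DNA binding; potency is for inhibitors that block LANA binding to the DNA.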 Set-up: species or system Human gammaherpesvirus 8.
The target in test [13] is T3, Alkaline phosphatase, tissue-nonspecific isozyme (Homo sapiens, UniProt P05186).
T3 sequence (P05186 whole entry): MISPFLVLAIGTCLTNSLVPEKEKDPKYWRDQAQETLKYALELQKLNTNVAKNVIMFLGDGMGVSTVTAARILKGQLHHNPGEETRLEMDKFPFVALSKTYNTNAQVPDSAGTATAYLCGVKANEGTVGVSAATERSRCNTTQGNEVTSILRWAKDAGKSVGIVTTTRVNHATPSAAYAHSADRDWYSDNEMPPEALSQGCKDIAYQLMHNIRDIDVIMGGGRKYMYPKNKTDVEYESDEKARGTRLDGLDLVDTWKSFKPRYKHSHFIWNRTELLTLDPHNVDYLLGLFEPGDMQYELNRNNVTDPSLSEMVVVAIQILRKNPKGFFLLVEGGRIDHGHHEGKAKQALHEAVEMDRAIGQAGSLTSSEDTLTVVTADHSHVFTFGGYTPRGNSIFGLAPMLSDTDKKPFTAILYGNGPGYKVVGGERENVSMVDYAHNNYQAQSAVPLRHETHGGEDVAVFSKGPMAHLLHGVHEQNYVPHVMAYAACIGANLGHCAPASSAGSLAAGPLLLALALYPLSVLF
In words: TNAP enzyme inhibition by screening hits, dose response, selectivity assay for mouse IAP inhibitor project, biochemical, human TNAP, uHTS hits (AID 488906). In kind it is functional.

The target of another test is Genome polyprotein (dengue virus type 2, UniProt P29990). In words: flavivirus cap methylation enzyme inhibition – biochemical, confirmation dose response, primary screen (AID 588689). In kind it is functional.
In test [14] the target is T4, Histone-lysine N-methyltransferase NSD2 (Homo sapiens, UniProt O96028).
T4 sequence (O96028 whole entry): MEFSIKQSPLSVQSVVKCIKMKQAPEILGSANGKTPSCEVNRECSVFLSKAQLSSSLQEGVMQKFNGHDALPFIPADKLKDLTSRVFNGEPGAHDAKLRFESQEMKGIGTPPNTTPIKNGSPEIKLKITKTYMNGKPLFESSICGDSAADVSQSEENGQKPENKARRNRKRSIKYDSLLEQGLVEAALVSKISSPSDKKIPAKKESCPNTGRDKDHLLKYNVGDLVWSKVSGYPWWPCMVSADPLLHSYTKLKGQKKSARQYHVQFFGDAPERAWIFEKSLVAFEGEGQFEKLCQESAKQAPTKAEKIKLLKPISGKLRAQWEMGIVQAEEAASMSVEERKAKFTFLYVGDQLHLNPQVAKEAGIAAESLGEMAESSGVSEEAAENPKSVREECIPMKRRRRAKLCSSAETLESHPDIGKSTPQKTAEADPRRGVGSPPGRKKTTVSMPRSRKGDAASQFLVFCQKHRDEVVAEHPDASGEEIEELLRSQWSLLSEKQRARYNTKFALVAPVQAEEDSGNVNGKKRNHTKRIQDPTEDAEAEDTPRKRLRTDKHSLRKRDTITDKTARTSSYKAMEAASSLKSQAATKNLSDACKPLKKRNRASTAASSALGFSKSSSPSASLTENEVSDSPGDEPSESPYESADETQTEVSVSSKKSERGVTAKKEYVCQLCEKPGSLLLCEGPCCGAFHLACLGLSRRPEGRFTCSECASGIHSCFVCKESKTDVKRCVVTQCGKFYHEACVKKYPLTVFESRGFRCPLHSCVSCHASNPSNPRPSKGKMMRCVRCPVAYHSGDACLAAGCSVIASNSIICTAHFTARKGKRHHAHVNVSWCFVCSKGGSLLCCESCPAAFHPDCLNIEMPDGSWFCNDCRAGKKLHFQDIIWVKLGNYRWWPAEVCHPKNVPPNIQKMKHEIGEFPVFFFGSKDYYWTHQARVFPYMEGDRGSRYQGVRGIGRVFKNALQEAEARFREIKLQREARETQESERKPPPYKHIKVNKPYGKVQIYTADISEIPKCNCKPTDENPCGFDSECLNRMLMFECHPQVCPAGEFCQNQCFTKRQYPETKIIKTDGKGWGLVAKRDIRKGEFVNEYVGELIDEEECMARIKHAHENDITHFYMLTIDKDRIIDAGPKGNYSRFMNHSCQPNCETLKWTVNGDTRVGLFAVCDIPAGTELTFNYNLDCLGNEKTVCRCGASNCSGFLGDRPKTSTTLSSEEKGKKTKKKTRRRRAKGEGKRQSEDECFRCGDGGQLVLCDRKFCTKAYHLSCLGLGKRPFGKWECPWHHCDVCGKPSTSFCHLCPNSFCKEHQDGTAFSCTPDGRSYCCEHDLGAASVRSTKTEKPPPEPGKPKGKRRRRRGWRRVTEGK
The format is biochemical.

The test system of the next test is HeLa. The experiment in a line: viability loss in HeLa cells – cell-based, 24 h, cherry-picked samples, cytotoxicity control, dose response (AID 504726).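 Further: potency for cytotoxicity as loss of luminescence signal.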 Conditions: Homo sapiens. The format is functional.
The target in test [15] is 1-phosphatidylinositol 4,5-bisphosphate phosphodiesterase gamma-1 (Homo sapiens, UniProt P19174). In words: Counterscreen for inhibitors of phospholipase C isozymes (PLC-B3): Fluorescence-based biochemical high throughput dose response assay to identify inhibitors of phospholipase C isozymes (PLC-gamma1). Background: The purpose of a counterscreen is to sort out artefacts and off-target activity.

Activity calls are given as the source filed them.

Chain of 1-phosphatidylinositol 4,5-bisphosphate phosphodiesterase gamma-1 (P19174 whole entry): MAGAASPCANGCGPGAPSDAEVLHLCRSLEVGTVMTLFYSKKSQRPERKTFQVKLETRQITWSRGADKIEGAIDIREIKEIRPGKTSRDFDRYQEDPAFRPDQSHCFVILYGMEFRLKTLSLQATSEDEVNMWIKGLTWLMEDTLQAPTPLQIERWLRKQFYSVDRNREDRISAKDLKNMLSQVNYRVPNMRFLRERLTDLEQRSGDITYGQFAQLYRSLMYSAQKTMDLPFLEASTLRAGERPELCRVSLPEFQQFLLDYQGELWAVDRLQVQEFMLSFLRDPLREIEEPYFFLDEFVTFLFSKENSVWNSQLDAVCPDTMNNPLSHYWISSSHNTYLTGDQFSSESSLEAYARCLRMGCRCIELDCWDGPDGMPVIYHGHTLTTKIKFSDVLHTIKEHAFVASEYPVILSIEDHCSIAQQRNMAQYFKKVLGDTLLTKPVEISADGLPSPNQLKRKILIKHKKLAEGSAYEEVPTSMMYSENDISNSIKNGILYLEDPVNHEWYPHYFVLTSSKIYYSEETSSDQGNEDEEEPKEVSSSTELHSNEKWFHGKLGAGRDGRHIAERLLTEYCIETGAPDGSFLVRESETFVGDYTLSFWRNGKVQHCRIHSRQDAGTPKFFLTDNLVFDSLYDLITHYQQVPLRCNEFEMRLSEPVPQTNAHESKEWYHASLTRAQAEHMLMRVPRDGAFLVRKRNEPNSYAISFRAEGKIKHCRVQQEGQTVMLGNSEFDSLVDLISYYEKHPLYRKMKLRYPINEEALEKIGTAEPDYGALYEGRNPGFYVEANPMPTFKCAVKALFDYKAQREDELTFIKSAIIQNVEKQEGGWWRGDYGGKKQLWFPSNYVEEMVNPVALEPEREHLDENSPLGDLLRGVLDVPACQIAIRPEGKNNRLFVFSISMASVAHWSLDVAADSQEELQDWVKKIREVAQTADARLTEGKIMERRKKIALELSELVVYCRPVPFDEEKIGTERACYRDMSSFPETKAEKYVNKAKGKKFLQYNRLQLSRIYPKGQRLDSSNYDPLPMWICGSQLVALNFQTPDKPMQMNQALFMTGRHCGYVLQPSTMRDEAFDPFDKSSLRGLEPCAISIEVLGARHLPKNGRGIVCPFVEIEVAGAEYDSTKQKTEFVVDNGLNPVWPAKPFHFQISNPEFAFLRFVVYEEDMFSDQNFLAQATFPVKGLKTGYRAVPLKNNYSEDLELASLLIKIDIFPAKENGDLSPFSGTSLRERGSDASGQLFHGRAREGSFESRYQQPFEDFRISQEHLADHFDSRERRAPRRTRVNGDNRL
Chain of 1-phosphatidylinositol 4,5-bisphosphate phosphodiesterase beta-3 (Q01970 whole entry): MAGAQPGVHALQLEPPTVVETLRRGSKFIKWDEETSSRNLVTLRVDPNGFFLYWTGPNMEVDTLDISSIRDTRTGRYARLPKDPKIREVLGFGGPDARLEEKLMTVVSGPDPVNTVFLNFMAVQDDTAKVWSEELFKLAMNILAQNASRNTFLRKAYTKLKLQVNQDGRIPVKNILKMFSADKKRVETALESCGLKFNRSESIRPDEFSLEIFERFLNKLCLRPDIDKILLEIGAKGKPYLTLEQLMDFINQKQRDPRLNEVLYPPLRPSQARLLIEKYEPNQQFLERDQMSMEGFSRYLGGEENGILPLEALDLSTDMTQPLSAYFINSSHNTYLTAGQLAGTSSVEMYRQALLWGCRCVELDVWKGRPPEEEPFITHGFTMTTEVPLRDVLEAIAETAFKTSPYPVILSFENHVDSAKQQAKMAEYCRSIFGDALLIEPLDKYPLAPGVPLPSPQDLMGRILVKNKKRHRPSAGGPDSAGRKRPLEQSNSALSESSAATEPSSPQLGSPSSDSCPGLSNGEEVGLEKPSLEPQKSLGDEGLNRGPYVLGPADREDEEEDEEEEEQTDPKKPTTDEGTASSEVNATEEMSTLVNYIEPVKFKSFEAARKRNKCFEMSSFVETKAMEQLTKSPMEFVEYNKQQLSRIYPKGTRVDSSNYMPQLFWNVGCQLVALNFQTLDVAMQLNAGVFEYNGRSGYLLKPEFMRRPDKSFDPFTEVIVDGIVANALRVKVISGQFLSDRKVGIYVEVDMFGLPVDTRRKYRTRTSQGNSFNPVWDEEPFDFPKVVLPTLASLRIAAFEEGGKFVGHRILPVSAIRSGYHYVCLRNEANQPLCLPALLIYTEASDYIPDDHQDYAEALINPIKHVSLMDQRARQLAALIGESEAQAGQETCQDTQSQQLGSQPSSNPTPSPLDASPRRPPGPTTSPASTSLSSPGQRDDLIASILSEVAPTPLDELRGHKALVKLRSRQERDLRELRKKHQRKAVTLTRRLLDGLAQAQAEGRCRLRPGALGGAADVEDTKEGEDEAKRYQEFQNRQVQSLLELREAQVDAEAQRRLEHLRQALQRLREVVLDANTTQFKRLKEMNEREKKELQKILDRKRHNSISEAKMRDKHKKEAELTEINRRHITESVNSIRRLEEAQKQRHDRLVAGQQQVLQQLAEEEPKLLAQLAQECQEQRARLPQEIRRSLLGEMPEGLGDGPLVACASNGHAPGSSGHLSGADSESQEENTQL
Chain of ORF 73 (O40947 whole entry): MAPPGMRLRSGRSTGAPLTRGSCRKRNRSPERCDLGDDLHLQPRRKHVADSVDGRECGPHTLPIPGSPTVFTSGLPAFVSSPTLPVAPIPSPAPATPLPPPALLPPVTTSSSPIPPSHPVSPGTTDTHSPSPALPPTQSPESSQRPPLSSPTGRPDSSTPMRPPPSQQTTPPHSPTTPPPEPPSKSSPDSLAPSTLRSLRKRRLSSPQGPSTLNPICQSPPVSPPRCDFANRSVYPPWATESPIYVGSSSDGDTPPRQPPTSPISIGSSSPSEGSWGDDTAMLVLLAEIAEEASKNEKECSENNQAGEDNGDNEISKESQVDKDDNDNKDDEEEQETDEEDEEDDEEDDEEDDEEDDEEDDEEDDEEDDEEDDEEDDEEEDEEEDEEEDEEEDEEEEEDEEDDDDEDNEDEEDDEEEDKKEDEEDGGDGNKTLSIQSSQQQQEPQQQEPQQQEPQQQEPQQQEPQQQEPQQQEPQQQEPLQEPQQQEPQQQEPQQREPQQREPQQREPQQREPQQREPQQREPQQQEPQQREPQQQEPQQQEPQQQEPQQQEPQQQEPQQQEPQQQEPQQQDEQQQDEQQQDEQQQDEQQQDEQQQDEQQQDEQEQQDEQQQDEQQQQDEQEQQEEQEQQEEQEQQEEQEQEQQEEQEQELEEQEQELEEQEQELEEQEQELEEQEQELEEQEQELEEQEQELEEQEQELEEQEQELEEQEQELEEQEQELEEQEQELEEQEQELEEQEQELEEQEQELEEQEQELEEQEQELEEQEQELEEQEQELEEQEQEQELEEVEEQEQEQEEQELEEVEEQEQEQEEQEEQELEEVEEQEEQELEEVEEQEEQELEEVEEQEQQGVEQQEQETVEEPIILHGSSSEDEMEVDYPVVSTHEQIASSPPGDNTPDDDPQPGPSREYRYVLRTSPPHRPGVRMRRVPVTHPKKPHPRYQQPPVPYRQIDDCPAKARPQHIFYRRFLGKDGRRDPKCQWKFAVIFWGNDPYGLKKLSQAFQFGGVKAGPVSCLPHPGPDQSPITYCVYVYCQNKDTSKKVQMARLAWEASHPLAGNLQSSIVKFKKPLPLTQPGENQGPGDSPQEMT
Chain of Intestinal-type alkaline phosphatase (Homo sapiens, UniProt P09923) (P09923 whole entry): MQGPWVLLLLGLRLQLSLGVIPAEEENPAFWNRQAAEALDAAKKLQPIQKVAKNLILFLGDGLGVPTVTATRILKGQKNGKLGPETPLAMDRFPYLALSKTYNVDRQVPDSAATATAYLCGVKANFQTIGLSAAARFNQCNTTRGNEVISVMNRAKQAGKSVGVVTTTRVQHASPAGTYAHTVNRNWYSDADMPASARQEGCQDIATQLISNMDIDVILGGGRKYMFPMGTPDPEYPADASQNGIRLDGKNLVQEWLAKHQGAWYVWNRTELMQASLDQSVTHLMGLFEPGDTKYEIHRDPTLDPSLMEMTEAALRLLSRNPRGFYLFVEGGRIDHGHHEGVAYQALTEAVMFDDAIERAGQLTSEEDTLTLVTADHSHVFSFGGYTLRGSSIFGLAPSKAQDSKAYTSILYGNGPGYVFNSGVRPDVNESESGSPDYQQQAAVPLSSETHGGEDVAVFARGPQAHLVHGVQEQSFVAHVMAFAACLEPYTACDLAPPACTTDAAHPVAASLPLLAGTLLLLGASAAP
Chain of Bcl-2-like protein 1 (Q07817 whole entry): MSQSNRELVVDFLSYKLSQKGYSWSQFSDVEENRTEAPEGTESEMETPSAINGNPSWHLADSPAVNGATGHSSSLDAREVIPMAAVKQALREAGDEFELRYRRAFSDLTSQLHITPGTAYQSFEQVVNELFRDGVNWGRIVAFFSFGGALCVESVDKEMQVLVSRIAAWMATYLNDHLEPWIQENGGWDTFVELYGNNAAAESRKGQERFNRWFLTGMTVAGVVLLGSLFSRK
Chain of G-protein coupled receptor 55 (Q9Y2T6 whole entry): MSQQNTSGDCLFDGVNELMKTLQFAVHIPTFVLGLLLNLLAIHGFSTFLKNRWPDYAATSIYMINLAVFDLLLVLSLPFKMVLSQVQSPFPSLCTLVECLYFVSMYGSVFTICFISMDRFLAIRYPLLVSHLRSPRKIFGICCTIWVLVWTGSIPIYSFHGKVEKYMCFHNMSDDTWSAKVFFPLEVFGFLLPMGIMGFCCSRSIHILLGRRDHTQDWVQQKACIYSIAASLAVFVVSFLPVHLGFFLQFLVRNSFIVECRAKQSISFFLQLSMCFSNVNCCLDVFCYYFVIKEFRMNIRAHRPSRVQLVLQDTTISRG
Chain of Induced myeloid leukemia cell differentiation protein Mcl-1 (Q07820 whole entry): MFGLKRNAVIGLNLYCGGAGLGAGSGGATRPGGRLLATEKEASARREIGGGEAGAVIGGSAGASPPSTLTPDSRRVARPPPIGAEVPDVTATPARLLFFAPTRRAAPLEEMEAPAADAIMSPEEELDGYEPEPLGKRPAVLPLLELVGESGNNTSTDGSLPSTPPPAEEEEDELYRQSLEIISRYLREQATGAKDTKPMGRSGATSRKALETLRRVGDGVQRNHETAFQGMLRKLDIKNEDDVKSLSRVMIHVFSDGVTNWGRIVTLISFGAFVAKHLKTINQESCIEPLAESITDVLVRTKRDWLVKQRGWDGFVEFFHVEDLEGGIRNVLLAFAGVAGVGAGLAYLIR

The term IC50 denotes the point on the concentration scale where inhibition reaches its midpoint. On to `CCOc1cc(/C=N/n2cnnc2)cc(Br)c1O`, for which, at Coagulation factor XII, the IC50 is > 50 µM (inactive).

As a reminder, the AC50 is the concentration giving half of the maximal activity seen. On to `COc1ccc(N(C(=O)CCl)C(C(=O)NC2CCCCC2)c2cccs2)cc1Cl` (configuration not stated), for which the AC50 in test [1] is 0.113 µM (active); in [2] it was 0.27 µM (active); in test [3], 0.455 µM (active); in test [4] it was 0.12 µM (active).

As a reminder, the EC50 is the concentration giving half of the maximal effect. Take `CCOC(=O)c1sc(N)c(C#N)c1COC(=O)CNC(=O)c1cc(OC)c(OC)c(OC)c1`: on Troponin, cardiac muscle, the EC50 was 11.1 µM (inactive).

Consider `CC(=O)Nc1nonc1NC(=O)CSc1ccccn1`, for which, at Coagulation factor XII, the IC50 is > 50 µM (inactive).

With `COc1ccc(N(C(=O)CCl)C(C(=O)NCn2nnc3ccccc32)c2cccs2)cc1Cl` (configuration not stated), the half-maximal activity concentration (AC50) was 0.102 µM (active) in [1], 0.242 µM (active) in [2], 0.432 µM (active) in [3] and 0.097 µM (active) in test [4].

Regarding `N#CCC(=O)Nc1ccc(C(=O)OCC(=O)Nc2ccccc2Sc2ccccc2)cc1`, the values for the IC50 in [5], in test [6] and in test [7] were 2.17 µM (active), > 83.3 µM (inactive) and > 109 µM (inactive), respectively. Moreover, the EC50 in test [8] is > 260 µM (inactive).

On to `O=C(CN1C(=O)/C(=C/c2ccco2)SC1=S)Nc1ccc(O)c(C(=O)O)c1`, for which the IC50 in test [9] was > 122 µM (inactive); at Large T antigen, 54.3 µM (active); in test [10], 13.2 µM (active); in test [11], 5.86 µM (active); on Bcl-2-like protein 1, > 109 µM (not active); in test [12] it was 18.5 µM (not active). The IC50 was 15.1 µM (active) in test [13], > 100 µM (active) on Genome polyprotein and > 122 µM (inactive) in [15]. Moreover, the values for the AC50 (at ORF 73; in test [14]; with HeLa) were 98.5 µM (active), > 20 µM (inactive) and > 350 µM (inactive), respectively.
